Measured values published in US20230381176A1, “A PHARMACEUTICAL COMPOSITION AND USE THEREOF FOR TREATMENT OF CANCER” (Ascentage Pharma (Suzhou) Co., Ltd., priority 2020, published 2023).

Tests used:
[1] = test system: ovarian PA-1 xenograft; test: s.c. ovarian PA-1 xenograft tumor model, Compound 5 and carboplatin; format: in vivo, mouse; conditions: Compound 5 100 mg/kg orally once per day 21 days, carboplatin 50 mg/kg i.p. once on Day 1
Procedure: (§1) A subcutaneous xenograft tumor model of human tumor immunodeficient mice was established by cell inoculation: tumor cells in logarithmic growth phase were collected, counted, resuspended in 1×PBS, and the cell suspension concentration was adjusted to 2.5-5 ×10^7/mL. The tumor cells were inoculated subcutaneously in the right side of immunodeficient mice with a 1 mL syringe ([…]), 5-10×10^6/0.2 mL/mouse. All animal experiments were strictly in accordance with the specifications for the use and management of experimental animals in GenePharma Co., Ltd. and Suzhou Ascentage Pharma Co., Ltd. The calculation of relevant parameters refers to the Chinese NMPA “Guidelines for Non-Clinical Research Techniques of Cytotoxic Anti-tumor Drugs”.
(§2) Animal body weight and tumor size were measured twice weekly during the experiment. The state of the animal and the presence or absence of death were observed every day. The growth of tumor and the effects of treatment on normal behavior of animals were monitored routinely, specifically involving experimental animal activity, feeding and drinking, weight gain or loss, eyes, clothing hair and other abnormalities. The deaths and clinical symptoms observed during the experiment were recorded in the raw data. All operations for administration and measurement of mouse body weight and tumor volume were performed in a clean bench. According to the requirements of the experimental protocol, after the end of the last administration, plasma and tumor tissues were collected, weighed and photographed. The plasma and tumor samples were frozen at −80° C. for ready-to-use.
(§3) Tumor volume (TV) is calculated as: TV=a×b^2/2, wherein a and b represent the length and width of the tumor to be measured, respectively.
(§4) The relative tumor volume (RTV) is calculated as: RTV=Vt/V1, wherein V1 is the tumor volume at the start of grouping and administration, and Vt is the tumor volume measured on the t day after administration.
(§5) The evaluation index of anti-tumor activity is the relative tumor proliferation rate T/C (%), and the calculation formula thereof is: relative tumor proliferation rate T/C (%)=(TRTV/CRTV)×100%, TRTV is the RTV of treatment group, CRTV is the RTV of solvent control group.
(§6) Change of body weight (%)=(measured body weight−body weight at the start of grouping)/body weight at the start of grouping×100%.
(§7) A dose of drug is considered to be severely toxic if the body weight of mouse is reduced by more than 20% or the number of drug-related deaths exceeds 20%.
(§8) According to the description by Clarke R., Issues in experimental design and endpoint analysis in the study of experimental cytotoxic agents in vivo in breast cancer and other models [J]. Breast Cancer Research & Treatment, 1997, 46(2-3): 255-278, synergy analysis was evaluated using the following formula: synergy factor=((A/C)×(B/C))/(AB/C); A=RTV value of drug A alone group; B=RTV value of drug B alone group; C=RTV value of the solvent control group, and AB=RTV value of the A and B combination group.
Use of mRECIST (Gao et al., 2015) measured tumor responses included stable disease (SD), partial tumor regression (PR), and complete regression (CR), determined by comparing tumor volume change at day t to its baseline: tumor volume change (%)=(Vt−V1)/V1. The BestResponse was the minimum value of tumor volume change (%) for t≥10. For each time t, the average of tumor volume changes from t=1 to t was also calculated. […] Body weight of animals were monitored simultaneously. […]

[2] = test system: PTK2 high ovarian PDX OV1385; test: PTK2 high ovarian PDX model OV1385, Compound 5 and carboplatin and/or paclitaxel; format: in vivo, mouse; conditions: for RTV on Day 35 after administration (mean ± standard error) / T/C on Day 35 after administration (%): Compound 5 50 mg/kg orally once per day, carboplatin 30 mg/kg i.p. once a week, paclitaxel 10 mg/kg i.v. once a week, 35 days; for mRECIST on Day 35 after administration: Day 35, animals per class; for antitumor activity (conclusion in words): mouse, in vivo
Procedure: as §1, §2, §3, §4, §6, §7, §8
(§9) Use of mRECIST (Gao et al., 2015) measured tumor responses included stable disease (SD), partial tumor regression (PR), and complete regression (CR), determined by comparing tumor volume change at day t to its baseline: tumor volume change (%)=(Vt−V1)/V1. The BestResponse was the minimum value of tumor volume change (%) for t≥10. For each time t, the average of tumor volume changes from t=1 to t was also calculated. BestAvgResponse was defined as the minimum value of this average for t≥10. The criteria for response (mRECIST) were adapted from RECIST criteria (Gao et al., 2015; Therasse et al., 2000) and defined as follows: mCR, BestResponse<−95% and BestAvg Response<−40%; mPR, BestResponse<−50% and BestAvgResponse<−20%; mSD, BestResponse<35% and BestAvgResponse<30%; mPD, not otherwise categorized. SD, PR, and CR were considered responders and used to calculate response rate (%). […] Body weight of animals were monitored simultaneously. The change in body weight was calculated based on the animal weight of the first day of dosing (day 1). Tumor volume and changes in body weight (%) were represented as the mean±standard error of the mean (SEM).

[3] = test system: ovarian PDX OV1658; test: Ovarian PDX model OV1658, Compound 5 and carboplatin and/or paclitaxel; format: in vivo, mouse; conditions: for RTV on Day 19 after administration (mean ± standard error) / T/C on Day 19 after administration (%): Compound 5 50 mg/kg orally once per day, carboplatin 30 mg/kg i.p. once a week, paclitaxel 10 mg/kg i.v. once a week, 19 days; for mRECIST on Day 19 after administration: Day 19, animals per class; for mRECIST: best response, animals per class; for antitumor activity (conclusion in words): mouse, in vivo
Procedure: as §1, §2, §3, §4, §6, §7, §8, §9

[4] = test system: PTK2 high NSCLC PDX LU-01-0604; test: s.c. PTK2 high NSCLC PDX model LU-01-0604, Compound 5 and carboplatin; format: in vivo, mouse
Procedure: as §1, §2, §3, §4, §5, §6, §7, §8
as §9, with “The change in body weight was calculated based on the animal weight of the first day of dosing (day 1). Tumor volume and changes in body weight (%) were represented as the mean±standard error of the mean (SEM).” left out

[5] = test system: PTK2 high ovarian PDX OV2423; test: PTK2 high ovarian PDX model OV2423, Compound 5 and carboplatin and/or paclitaxel; format: in vivo, mouse; conditions: for RTV on Day 28 after administration (mean ± standard error) / T/C on Day 28 after administration (%): Compound 5 50 mg/kg orally once per day, carboplatin 30 mg/kg i.p. once a week, paclitaxel 10 mg/kg i.v. once a week, 28 days; for mRECIST: animals per class; for antitumor activity (conclusion in words): mouse, in vivo
Procedure: as §1, §2, §3, §4, §6, §7, §8, §9

[6] = test system: NCI-H2228 tumor cells; test: Cell viability WST (CCK-8) assay, combination of Compound 5 and Compound 34; format: cell-based; conditions: Homo sapiens, 72 hours, single agent, read-out: Compound B IC50
Procedure: Cell plating: Anti-proliferative effects were detected by a CCK-8 (Cell Counting Kit-8, Shanghai life iLab, China) assay based on water soluble tetrazolium salt (WST). The cells were seeded in 96-well plates, and only 95 μL of complete medium was added to each negative control group. 95 μL of complete medium cell suspension was added to each well to be tested, and the cell density was (5-10)×10^4/hole. Dosing (protection from light): […] After 72 hours of action by using 6 different concentrations of Compound 34 with 3 fixed doses of Compound 5, the combination effect of Compound 5 an Compound 34 was tested. Reading: […] The plates were continuously incubated at 37 ° C. for 2-4 hours in a CO2 incubator. The OD values were measured using a microplate reader (SpectraMax Plus 384, Molecular Devices, LLC., US) under A450 nm. […] (O.D. of test well−O.D. of blank control well)/(O.D. of cell control well−O.D. of blank control well)×100%. IC50 values were calculated using Graphpad Prism 6.0 software for nonlinear regression data analysis method.

[7] = test system: PTK2 high ovarian PDX OV2018; test: PTK2 high ovarian PDX model OV2018, Compound 5 and paclitaxel; format: in vivo, mouse
Procedure: as §1, §2, §3, §4, §6, §7, §8, §9

[8] = test system: OVCAR3 s.c. ovarian xenograft; test: OVCAR3 s.c. ovarian xenograft model, overcoming resistance to paclitaxel / paclitaxel and carboplatin; format: in vivo, mouse
Procedure: as §1
Animal body weight and tumor size were measured twice weekly during the experiment. The state of the animal and the presence or absence of death were observed every day. The growth of tumor and the effects of treatment on normal behavior of animals were monitored routinely, specifically involving experimental animal activity, feeding and drinking, weight gain or loss, eyes, clothing hair and other abnormalities. The deaths and clinical symptoms observed during the experiment were recorded in the raw data. […] The plasma and tumor samples were frozen at −80° C. for ready-to-use.
as §3, §4
Change of body weight (%)=(measured body weight−body weight at the start of grouping)/body weight at the start of grouping×100%. […]
Use of mRECIST (Gao et al., 2015) measured tumor responses included stable disease (SD), partial tumor regression (PR), and complete regression (CR), determined by comparing tumor volume change at day t to its baseline: tumor volume change (%)=(Vt−V1)/V1. […]

[9] = test system: OVCAR3 s.c. ovarian xenograft; format: in vivo
Procedure: as §1, §2, §3, §4, §6, §7, §8, §9

[10] = test system: A549 NSCLC xenograft; test: s.c. A549 NSCLC lung cancer model, Compound 5 and panobinostat; format: in vivo, mouse; conditions: Compound 5 100 mg/kg orally once per day, panobinostat 3 mg/kg i.p. 5 days then 2 days break, 14 days
[11] = Compound 5 50 mg/kg orally once per day, carboplatin 30 mg/kg i.p. once per week, 29 days
[12] = Compound 5 50 mg/kg orally once per day, paclitaxel 10 mg/kg i.v. once a week, 35 days
[13] = best response, animals per class
[14] = Compound 5 100 mg/kg orally once per day, paclitaxel 10 mg/kg i.v. once a week, carboplatin 30 mg/kg i.v. once a week

Row | SMILES | RTV on Day 35 after administration (mean ± standard error) [2] | T/C on Day 35 after administration (%) [2] [%] | mRECIST on Day 35 after administration [2] | antitumor activity (conclusion in words) [2] | RTV on Day 19 after administration (mean ± standard error) [3] | T/C on Day 19 after administration (%) [3] [%] | mRECIST on Day 19 after administration [3] | mRECIST [3] | antitumor activity (conclusion in words) [3] | RTV on Day 28 after administration (mean ± standard error) [5] | T/C on Day 28 after administration (%) [5] [%] | mRECIST [5] | antitumor activity (conclusion in words) [5] | other results
1 | N.N.O=C([O-])C1(C(=O)[O-])CCC1.[Pt+2] [Carboplatin, carboplatin] | 2.08 ± 0.49 | 51.49 | 2/2 PD | moderate antitumor activity | 9.34 ± 2.01 | 68.37 | 2/2 PD | 2/2 PD | minor antitumor activity | 8.97 ± 1.24 | 47.76 | 2/2 PD | moderate antitumor activity | RTV on Day 22 after administration (mean ± standard error) [1]: 15.1 ± 2.3; T/C on Day 22 after administration (%) [1]: 94.97%; RTV on Day 29 after administration (mean ± standard error) [4, 11]: 11.15 ± 6.55; T/C on Day 29 after administration (%) [4, 11]: 127.72%; antitumor activity (conclusion in words) ([4]; mouse, in vivo): no antitumor activity
2 | Cc1ccc(C(=O)Nc2ccc(CN3CCN(C)CC3)c(C(F)(F)F)c2)cc1C#Cc1cnc2[nH]ncc2c1 [Compound 34] |  |  |  |  |  |  |  |  |  |  |  |  |  | IC50 [6]: 1.68 µM
3 | CC(=O)O[C@H]1C(=O)[C@@]2(C)[C@H]([C@H](OC(=O)c3ccccc3)[C@]3(O)C[C@H](OC(=O)[C@H](O)[C@@H](NC(=O)c4ccccc4)c4ccccc4)C(C)=C1C3(C)C)[C@]1(OC(C)=O)CO[C@@H]1C[C@@H]2O [Paclitaxel, paclitaxel] | 1.80 ± 0.75 | 44.55 | 2/2 PD | moderate antitumor activity | 11.79 | 86.31 | 2/2 PD | 2/2 PD | minor antitumor activity | 9.54 ± 1.73 | 50.80 | 2/2 PD | moderate antitumor activity | RTV on Day 35 after administration (mean ± standard error) [7, 12]: 2.87 ± 0.24; T/C on Day 35 after administration (%) [7, 12]: 118.60%; mRECIST on Day 35 after administration ([7]; Day 35, animals per class): 2/2 PD; mRECIST [7, 13]: 2/2 PD; antitumor activity (conclusion in words) ([7]; mouse, in vivo): no antitumor activity; DCR (%) ([8]; mouse, in vivo): 20%; ORR (%) ([8]; mouse, in vivo): 0%; RTV on Day 56 after administration (mean ± standard error) ([8]; paclitaxel 10 mg/kg i.v. once a week, carboplatin 30 mg/kg i.v. once a week, Compound 5 100 mg/kg orally once per day from Day 15): 5.19 ± 0.62; mRECIST [2, 13]: 2/2 PD; RTV on Day 35 after administration (mean ± standard error) [9, 14]: 8.02 ± 1.30; T/C on Day 35 after administration (%) [9, 14]: 52.14%; mRECIST ([9]; animals per class): 5/5 PD; antitumor activity (conclusion in words) ([9]; mouse, in vivo): moderate antitumor activity; Overall regression rate (ORR), % ([9]; proportion of animals with CR or PR): 0%; Disease control rate (DCR), % ([9]; proportion of animals with CR, PR or SD): 0%
4 | Cc1[nH]c2ccccc2c1CCNCc1ccc(/C=C/C(=O)NO)cc1 [panobinostat, reference compound] |  |  |  |  |  |  |  |  |  |  |  |  |  | RTV on Day 14 after administration (mean ± standard error) [10]: 2.06 ± 0.29; T/C on Day 14 after administration (%) [10]: 57.54%
